Source: ChEMBL document CHEMBL1156230, “Identification of phenylsulfone-substituted quinoxaline (WYE-672) as a tissue selective liver X-receptor (LXR) agonist” (J Med Chem, 2010)
The source made the active and inactive calls. The rule behind the calls is not given here.

Columns and labels:
Mus musculus [1] = experiment: Antiatherosclerotic activity against high fat/high cholesterol fed LDLR-deficient mouse assessed as scd1 gene regulation at 0.6 mg/kg administered with diet for 7 days by Experion chip analysis; assay type: functional, organism-based; parameters: dose 0.6 mg/kg
Mus musculus [2] = organism: Mus musculus; experiment: Antiatherosclerotic activity against high fat/high cholesterol fed LDLR-deficient mouse assessed as reduction in total plasma cholesterol; assay type: functional, organism-based
Mus musculus [3] = organism: Mus musculus; experiment: Antiatherosclerotic activity against high fat/high cholesterol fed LDLR-deficient mouse assessed as reduction in plasma triglyceride level; assay type: functional, organism-based
Mus musculus [4] = experiment: Antiatherosclerotic activity against high fat/high cholesterol fed LDLR-deficient mouse duodenum assessed as induction of ABCG5 expression at 0.6 mg/kg administered with diet for 8 weeks; assay type: functional, organism-based; parameters: dose 0.6 mg/kg
Mus musculus [5] = experiment: Antiatherosclerotic activity against high fat/high cholesterol fed LDLR-deficient mouse duodenum assessed as induction of ABCG5 expression at 3 mg/kg administered with diet for 8 weeks; assay type: functional, organism-based; parameters: dose 3 mg/kg
Mus musculus [6] = experiment: Antiatherosclerotic activity against high fat/high cholesterol fed LDLR-deficient mouse duodenum assessed as induction of ABCG5 expression at 10 mg/kg administered with diet for 8 weeks; assay type: functional, organism-based; parameters: dose 10 mg/kg
Mus musculus [7] = experiment: Antiatherosclerotic activity against high fat/high cholesterol fed LDLR-deficient mouse duodenum assessed as induction of ABCG8 expression at 10 mg/kg administered with diet for 8 weeks; assay type: functional, organism-based; parameters: dose 10 mg/kg
Mus musculus [8] = experiment: Antiatherosclerotic activity against high fat/high cholesterol fed LDLR-deficient mouse duodenum assessed as induction of SREBP-1c expression at 0.6 mg/kg administered with diet for 8 weeks; assay type: functional, organism-based; parameters: dose 0.6 mg/kg
Mus musculus [9] = experiment: Antiatherosclerotic activity against high fat/high cholesterol fed LDLR-deficient mouse macrophages assessed as induction of ABCA1 expression at 0.6 mg/kg administered with diet for 8 weeks; assay type: functional, organism-based; parameters: dose 0.6 mg/kg
Mus musculus [10] = experiment: Antiatherosclerotic activity against high fat/high cholesterol fed LDLR-deficient mouse macrophages assessed as induction of ABCA1 expression at 3 mg/kg administered with diet for 8 weeks; assay type: functional, organism-based; parameters: dose 3 mg/kg
Mus musculus [11] = experiment: Antiatherosclerotic activity against high fat/high cholesterol fed LDLR-deficient mouse assessed as abcg1 gene regulation at 0.6 mg/kg administered with diet for 7 days by Experion chip analysis; assay type: functional, organism-based; parameters: dose 0.6 mg/kg
Mus musculus [12] = experiment: Antiatherosclerotic activity against high fat/high cholesterol fed LDLR-deficient mouse assessed as adfp gene regulation at 0.6 mg/kg administered with diet for 7 days by Experion chip analysis; assay type: functional, organism-based; parameters: dose 0.6 mg/kg
Mus musculus [13] = experiment: Antiatherosclerotic activity against high fat/high cholesterol fed LDLR-deficient mouse assessed as apo5 gene regulation at 0.6 mg/kg administered with diet for 7 days by Experion chip analysis; assay type: functional, organism-based; parameters: dose 0.6 mg/kg
Mus musculus [14] = experiment: Antiatherosclerotic activity against high fat/high cholesterol fed LDLR-deficient mouse assessed as apoe gene regulation at 0.6 mg/kg administered with diet for 7 days by Experion chip analysis; assay type: functional, organism-based; parameters: dose 0.6 mg/kg
Mus musculus [15] = experiment: Antiatherosclerotic activity against high fat/high cholesterol fed LDLR-deficient mouse assessed as Fasn gene regulation at 0.6 mg/kg administered with diet for 7 days by Experion chip analysis; assay type: functional, organism-based; parameters: dose 0.6 mg/kg
Mus musculus [16] = experiment: Antiatherosclerotic activity against high fat/high cholesterol fed LDLR-deficient mouse assessed as lipg gene regulation at 0.6 mg/kg administered with diet for 7 days by Experion chip analysis; assay type: functional, organism-based; parameters: dose 0.6 mg/kg
Mus musculus [17] = experiment: Antiatherosclerotic activity against high fat/high cholesterol fed LDLR-deficient mouse assessed as pcsk9 gene regulation at 0.6 mg/kg administered with diet for 7 days by Experion chip analysis; assay type: functional, organism-based; parameters: dose 0.6 mg/kg
Mus musculus [18] = experiment: Antiatherosclerotic activity against high fat/high cholesterol fed LDLR-deficient mouse assessed as pltp gene regulation at 0.6 mg/kg administered with diet for 7 days by Experion chip analysis; assay type: functional, organism-based; parameters: dose 0.6 mg/kg
Mus musculus [19] = experiment: Antiatherosclerotic activity against high fat/high cholesterol fed LDLR-deficient mouse assessed as scab1 gene regulation at 0.6 mg/kg administered with diet for 7 days by Experion chip analysis; assay type: functional, organism-based; parameters: dose 0.6 mg/kg
Mus musculus [20] = experiment: Antiatherosclerotic activity against high fat/high cholesterol fed LDLR-deficient mouse assessed as Lipc gene regulation at 10 mg/kg administered with diet for 7 days by Experion chip analysis; assay type: functional, organism-based; parameters: dose 10 mg/kg
Mus musculus [21] = experiment: Antiatherosclerotic activity against high fat/high cholesterol fed LDLR-deficient mouse assessed as Irp1 gene regulation at 10 mg/kg administered with diet for 7 days by Experion chip analysis; assay type: functional, organism-based; parameters: dose 10 mg/kg
Mus musculus [22] = experiment: Antiatherosclerotic activity against high fat/high cholesterol fed LDLR-deficient mouse assessed as scab1 gene regulation at 10 mg/kg administered with diet for 7 days by Experion chip analysis; assay type: functional, organism-based; parameters: dose 10 mg/kg
Mus musculus [23] = experiment: Antiatherosclerotic activity against high fat/high cholesterol fed LDLR-deficient mouse assessed as srebf1 gene regulation at 10 mg/kg administered with diet for 7 days by Experion chip analysis; assay type: functional, organism-based; parameters: dose 10 mg/kg
Mus musculus [24] = experiment: Antiatherosclerotic activity against high fat/high cholesterol fed LDLR-deficient mouse assessed as abca1 gene regulation at 3 mg/kg administered with diet for 7 days by Experion chip analysis; assay type: functional, organism-based; parameters: dose 3 mg/kg
Mus musculus [25] = experiment: Antiatherosclerotic activity against high fat/high cholesterol fed LDLR-deficient mouse assessed as adfp gene regulation at 3 mg/kg administered with diet for 7 days by Experion chip analysis; assay type: functional, organism-based; parameters: dose 3 mg/kg
Mus musculus [26] = experiment: Antiatherosclerotic activity against high fat/high cholesterol fed LDLR-deficient mouse assessed as cyp7a1 gene regulation at 3 mg/kg administered with diet for 7 days by Experion chip analysis; assay type: functional, organism-based; parameters: dose 3 mg/kg
Mus musculus [27] = experiment: Antiatherosclerotic activity against high fat/high cholesterol fed LDLR-deficient mouse assessed as apoc1 gene regulation at 3 mg/kg administered with diet for 7 days by Experion chip analysis; assay type: functional, organism-based; parameters: dose 3 mg/kg
Mus musculus [28] = experiment: Antiatherosclerotic activity against high fat/high cholesterol fed LDLR-deficient mouse assessed as ldlr gene regulation at 3 mg/kg administered with diet for 7 days by Experion chip analysis; assay type: functional, organism-based; parameters: dose 3 mg/kg
Mus musculus [29] = experiment: Antiatherosclerotic activity against high fat/high cholesterol fed LDLR-deficient mouse assessed as Lipc gene regulation at 3 mg/kg administered with diet for 7 days by Experion chip analysis; assay type: functional, organism-based; parameters: dose 3 mg/kg
Mus musculus [30] = experiment: Antiatherosclerotic activity against high fat/high cholesterol fed LDLR-deficient mouse assessed as lipg gene regulation at 3 mg/kg administered with diet for 7 days by Experion chip analysis; assay type: functional, organism-based; parameters: dose 3 mg/kg
Mus musculus [31] = experiment: Antiatherosclerotic activity against high fat/high cholesterol fed LDLR-deficient mouse assessed as Irp1 gene regulation at 3 mg/kg administered with diet for 7 days by Experion chip analysis; assay type: functional, organism-based; parameters: dose 3 mg/kg
Mus musculus [32] = experiment: Antiatherosclerotic activity against high fat/high cholesterol fed LDLR-deficient mouse assessed as scd1 gene regulation at 3 mg/kg administered with diet for 7 days by Experion chip analysis; assay type: functional, organism-based; parameters: dose 3 mg/kg
Mus musculus [33] = experiment: Antiatherosclerotic activity against high fat/high cholesterol fed LDLR-deficient mouse assessed as abca1 gene regulation at 10 mg/kg administered with diet for 7 days by Experion chip analysis; assay type: functional, organism-based; parameters: dose 10 mg/kg
Mus musculus [34] = experiment: Antiatherosclerotic activity against high fat/high cholesterol fed LDLR-deficient mouse assessed as abcg5 gene regulation at 10 mg/kg administered with diet for 7 days by Experion chip analysis; assay type: functional, organism-based; parameters: dose 10 mg/kg
Mus musculus [35] = experiment: Antiatherosclerotic activity against high fat/high cholesterol fed LDLR-deficient mouse assessed as adfp gene regulation at 10 mg/kg administered with diet for 7 days by Experion chip analysis; assay type: functional, organism-based; parameters: dose 10 mg/kg
Mus musculus [36] = experiment: Antiatherosclerotic activity against high fat/high cholesterol fed LDLR-deficient mouse assessed as apo5 gene regulation at 10 mg/kg administered with diet for 7 days by Experion chip analysis; assay type: functional, organism-based; parameters: dose 10 mg/kg
Mus musculus [37] = experiment: Antiatherosclerotic activity against high fat/high cholesterol fed LDLR-deficient mouse assessed as apoe gene regulation at 10 mg/kg administered with diet for 7 days by Experion chip analysis; assay type: functional, organism-based; parameters: dose 10 mg/kg
Mus musculus [38] = experiment: Antiatherosclerotic activity against high fat/high cholesterol fed LDLR-deficient mouse assessed as cyp7a1 gene regulation at 10 mg/kg administered with diet for 7 days by Experion chip analysis; assay type: functional, organism-based; parameters: dose 10 mg/kg
Mus musculus [39] = experiment: Antiatherosclerotic activity against high fat/high cholesterol fed LDLR-deficient mouse assessed as abcg8 gene regulation at 3 mg/kg administered with diet for 8 weeks by Experion chip analysis

| Compound | Activity (Mus musculus [1]) | Activity (Mus musculus [2]) | Activity (Mus musculus [3]) | Activity (Mus musculus [4]) | Activity (Mus musculus [5]) | Activity (Mus musculus [6]) | Activity (Mus musculus [7]) | Activity (Mus musculus [8]) | Activity (Mus musculus [9]) | Activity (Mus musculus [10]) | Activity (Mus musculus [11]) | Activity (Mus musculus [12]) | Activity (Mus musculus [13]) | Activity (Mus musculus [14]) | Activity (Mus musculus [15]) | Activity (Mus musculus [16]) | Activity (Mus musculus [17]) | Activity (Mus musculus [18]) | Activity (Mus musculus [19]) | Activity (Mus musculus [20]) | also measured |
| --- | --- | --- | --- | --- | --- | --- | --- | --- | --- | --- | --- | --- | --- | --- | --- | --- | --- | --- | --- | --- | --- |
| O=C(O)Cc1cccc(OCCCN(Cc2cccc(C(F)(F)F)c2Cl)CC(c2ccccc2)c2ccccc2)c1 | Active | inactive | inactive | Active | Active | Active | Active | Active | Active | Active | Active | Active | Active | Active | Active | Active | Active | Active | Active | Active | Activity (Mus musculus [21]): Active; Activity (Mus musculus [22]): Active; Activity (Mus musculus [23]): Active; Activity (Mus musculus [24]): Active; Activity (Mus musculus [25]): Active; Activity (Mus musculus [26]): Active; Activity (Mus musculus [27]): Active; Activity (Mus musculus [28]): Active; Activity (Mus musculus [29]): Active; Activity (Mus musculus [30]): Active; Activity (Mus musculus [31]): Active; Activity (Mus musculus [32]): Active; Activity (Mus musculus [33]): Active; Activity (Mus musculus [34]): Active; Activity (Mus musculus [35]): Active; Activity (Mus musculus [36]): Active; Activity (Mus musculus [37]): Active; Activity (Mus musculus [38]): Active; Activity (Mus musculus [39]): Active |
| Cc1nc2c(C(F)(F)F)cccc2nc1-c1ccc(-c2cccc(S(C)(=O)=O)c2)cc1 | Active | inactive | inactive | Active | Active | Active | Active | inactive | Active | Active | Active | Active | Active | Active | Active | Active | Active | Active | Active | Active | Activity (Mus musculus [21]): Active; Activity (Mus musculus [22]): Active; Activity (Mus musculus [23]): Active; Activity (Mus musculus [24]): Active; Activity (Mus musculus [25]): Active; Activity (Mus musculus [26]): Active; Activity (Mus musculus [27]): Active; Activity (Mus musculus [28]): Active; Activity (Mus musculus [29]): Active; Activity (Mus musculus [30]): Active; Activity (Mus musculus [31]): Active; Activity (Mus musculus [32]): Active; Activity (Mus musculus [33]): Active; Activity (Mus musculus [34]): Active; Activity (Mus musculus [35]): Active; Activity (Mus musculus [36]): Active; Activity (Mus musculus [37]): Active; Activity (Mus musculus [38]): Active; Activity (Mus musculus [39]): Active |
